Biological target: T1, Human CARM1 (PRMT4) (Homo sapiens, UniProt Q86X55)
T1 construct: Flag-CARM1-His; made in house; host or cells: HEK 293F cells (BacMam baculovirus)
T1 sequence (Q86X55 1-585 isoform Q86X55-1): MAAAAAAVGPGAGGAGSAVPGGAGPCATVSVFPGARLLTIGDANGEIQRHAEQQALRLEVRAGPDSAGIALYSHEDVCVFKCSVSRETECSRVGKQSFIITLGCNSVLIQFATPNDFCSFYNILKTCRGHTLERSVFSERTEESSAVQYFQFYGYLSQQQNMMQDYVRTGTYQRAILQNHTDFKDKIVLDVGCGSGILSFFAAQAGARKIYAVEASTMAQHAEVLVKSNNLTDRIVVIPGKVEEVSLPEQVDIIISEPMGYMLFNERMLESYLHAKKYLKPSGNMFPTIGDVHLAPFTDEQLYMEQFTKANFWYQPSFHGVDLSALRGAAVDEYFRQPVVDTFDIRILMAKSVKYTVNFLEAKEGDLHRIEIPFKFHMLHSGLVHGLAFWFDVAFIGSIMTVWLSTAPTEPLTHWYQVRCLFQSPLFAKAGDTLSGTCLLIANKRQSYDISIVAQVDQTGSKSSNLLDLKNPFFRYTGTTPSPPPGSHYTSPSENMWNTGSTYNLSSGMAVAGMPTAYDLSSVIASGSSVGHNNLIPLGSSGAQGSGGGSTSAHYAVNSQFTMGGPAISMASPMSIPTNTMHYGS
Assay: CARM1 Biochemical Assay (3H-SAM Flashplate, peptide substrate)
Conditions: single experiment or average of multiple experiments
Excerpt: S-adenosylmethionine (SAM), S-adenosylhomocysteine (SAH), bicine, Tween20, dimethylsulfoxide (DMSO), bovine skin gelatin (BSG), sodium butyrate and Tris(2-carboxyethyl)phosphine hydrochloride solution (TCEP) were purchased from Sigma-Aldrich at the highest level of purity possible. ^3H-SAM was purchase from American Radiolabeled Chemicals with a specific activity of 80 Ci/mmol. 384-well streptavidin Flashplates were purchased from PerkinElmer.
Peptide representative of human histone H3 residues 16-30 was synthesized with an N-terminal linker-affinity tag motif and a C-terminal amide cap by 21st Century Biochemicals. […] The sequence was Biot-Ahx-[…]-amide and contained a monomethylated arginine at position 26 (SEQ ID NO.: 14).
Recombinant baculovirus were generated according to Bac-to-Bac kit instructions (Life Technologies). […] Infections were carried out at 37° C. for 48 hours, harvested by centrifugation, and stored at −80° C. for purification.
Column was washed with 500 mM NaCl in buffer A and Flag-CARM1-His was eluted with 200 ug/ml FLAG peptide in buffer A. Pooled fractions were dialyzed in 20 mM Tris, 150 mM NaCl, 5% glycerol and 1 mM DTT, pH 7.8.
General Procedure for CARM1 Enzyme Assays on Peptide Substrates.
The assays were all performed in a buffer consisting of 20 mM Bicine (pH=7.6), 1 mM TCEP, 0.005% BSG, and 0.002% Tween 20, prepared on the day of use. […] DMSO (1 ul) was added to Columns 11, 12, 23, 24, rows A-H for the maximum signal control and 1 ul of SAH, a known product and inhibitor of CARM1, was added to columns 11, 12, 23, 24, rows I-P for the minimum signal control. A cocktail (40 ul) containing the CARM1 enzyme was added by Multidrop Combi (Thermo-Fisher). The compounds were allowed to incubate with CARM1 for 30 min at room temperature, then a cocktail (10 ul) containing ^3H-SAM and peptide was added to initiate the reaction (final volume=51 ul). […] The assays were stopped by the addition of non-radiolabeled SAM (10 ul) to a final concentration of 300 uM, which dilutes the ^3H-SAM to a level where its incorporation into the peptide substrate is no longer detectable. 50 ul of the reaction in the 384-well polypropylene plate was then transferred to a 384-well Flashplate and the biotinylated peptides were allowed to bind to the streptavidin surface for at least 1 hour before being washed once with 0.1% Tween20 in a Biotek ELx405 plate washer. The plates were then read in a PerkinElmer TopCount plate reader to measure the quantity of ^3H-labeled peptide bound to the Flashplate surface, measured as disintegrations per minute (dpm) or alternatively, referred to as counts per minute (cpm).
Where dpm=disintegrations per minute, cmpd=signal in assay well, and min and max are the respective minimum and maximum signal controls.
Where top and bottom are the normally allowed to float, but may be fixed at 100 or 0 respectively in a 3-parameter fit. The Hill Coefficient normally allowed to float but may also be fixed at 1 in a 3-parameter fit. Y is the % inhibition and X is the compound concentration.

Compared with `CNCCN(C)Cc1cn(C2CC2)nc1-c1ccc(F)cc1` [Compound 13], `CNCCN(C)Cc1cnn(C2CC2)c1-c1ccc(F)cc1` [Compound 14] is 2.3-fold lower in IC50: 2.24 µM for the first, 0.97 µM for the second. The second is the more potent here.

Compared with `CNCCN(C)Cc1cn(C(C)C)nc1-c1ccc(F)cc1` [Compound 15], `CNCCN(C)Cc1cnn(C(C)C)c1-c1ccc(F)cc1` [Compound 16] is 2-fold higher in IC50: 3.4 µM for the first, 6.74 µM for the second.

Compared with `CNCCN(C)Cc1cn[nH]c1-c1ccc(C#N)cc1` [Compound 17], `CNCCN(C)Cc1cn[nH]c1-c1cc(F)cc(F)c1` [Compound 18] is 2.4-fold lower in IC50: 1.56 µM for the first, 0.656 µM for the second. The second is the more potent here.

Going from `CN(CCN)Cc1n[nH]cc1-c1ccc(C2CCOCC2)cc1` [Compound 145] to `Cc1ccc(-c2n[nH]cc2CN(C)CCN)cc1` [Compound 162], the IC50 falls from 4.92 µM to 0.612 µM (8-fold).

`COc1ccc(-c2n[nH]cc2CN(C)CCN)c(Cl)c1` [Compound 146] and `COc1cc(F)ccc1-c1n[nH]cc1CN(C)CCN` [Compound 151] are within 1.5-fold of each other in IC50: 5.77 µM for the first, 8.32 µM for the second.

First: CN(CCN)Cc1c[nH]nc1-c1cccc(N(C)C)c1 [Compound 149]
Second: CCOC(=O)c1cccc(-c2n[nH]cc2CN(C)CCN)c1 [Compound 150]
The IC50 of the first is 1.9-fold lower: 1.3 µM for the first, 2.42 µM for the second. The first is the more potent here.

`Cc1cc(F)ccc1-c1n[nH]cc1CN(C)CCN` [Compound 152] and `Cc1ccccc1-c1n[nH]cc1CN(C)CCN` [Compound 161] are within 1.5-fold of each other in IC50: 6.87 µM for the first, 6.13 µM for the second.

First: COc1ccc(-c2n[nH]cc2CN(C)CCN)cc1 [Compound 153]
Second: CN(CCN)Cc1c[nH]nc1-c1cc(Cl)ccc1F [Compound 156]
The IC50 of the first is 3.3-fold lower: 2.06 µM for the first, 6.74 µM for the second.

Going from `CCn1cc(CN(C)CCNC)c(-c2ccc(OC(C)C)cc2)n1` [Compound 213] to `C=CCn1cc(CN(C)CCNC)c(-c2ccc(OC(C)C)cc2)n1` [Compound 218], the IC50 rises from 0.2 µM to 0.414 µM (2.1-fold). The first is the more potent here.

First: CNCCN(C)Cc1cn(C2CCCC2)nc1-c1ccc(OC(C)C)cc1 [Compound 214]
Second: CNCCN(C)Cc1cn(C2CCOC2)nc1-c1ccc(OC(C)C)cc1 (centres unmarked) [Compound 215]
The IC50 of the first is 1.8-fold lower: 0.168 µM for the first, 0.299 µM for the second. The first is the more potent here.

Going from `CNCCN(C)Cc1cnn(C2CCOC2)c1-c1ccc(OC(C)C)cc1` (centres unmarked) [Compound 216] to `C=CCn1ncc(CN(C)CCNC)c1-c1ccc(OC(C)C)cc1` [Compound 219], the IC50 falls from 0.285 µM to 0.142 µM (2-fold). The second is the more potent here.

With `CNCCN(C)Cc1cn(Cc2ccccc2)nc1-c1ccc(OC(C)C)cc1` [Compound 217] the IC50 was 0.62 µM.

— patent US9776972B2, “Pyrazole derivatives as arginine methyltransferase inhibitors and uses thereof” (priority 2013, dated 2017)
